Results as given in US8679526B2, “Antimicrobial peroxidase compositions” (Flen Pharma N.V., priority 2005, dated 2014).
Values after ≈ are worked out from the molar mass of the structure shown.

Columns and labels:
[1] = test system: S. aureus; assay: Antibacterial activity on S. aureus of oxidase/peroxidase with enhancing agents; type: cell-based, Staphylococcus aureus; details: for antibacterial activity of compositions with enhancing agent, substrate and enzyme: FIG. 2; for Enhancing effect on oxidase/peroxidase assay: antimicrobial effect; for enhancing activity on glucose/peroxidase antibacterial activity: present experimental setting; for bactericidal capacity when mixed with the enzyme-substrate solution / effect on cell survival of the separate systems: FIG. 1; for bactericidal capacity when mixed with the enzyme-substrate solution: enhancing agent and ES; for effect on cell survival of the separate systems: enhancing agent only
Protocol: Bacterial cells (S. aureus) were plated on Trypticase Soybean Agar plates (Becton Dickinson) and incubated overnight at 37° C. Cells were recovered from plates and mixed with NaCl-peptone broth buffer (Merck). The amount of medium is adjusted to give a bacterial suspension with a cell density of OD600=0.25 for bacteria.
For the examples described in the following examples, a fresh dilution of 0.25% (v/v) enzyme-substrate (Biovert™) stock solutions were prepared for each independent test. The Biovert™ enzyme stock solution contains 1527 U/ml lactoperoxidase; 2016 U/ml glucose oxidase; the Biovert™ substrate stock solution comprises: 55% (w/v) glucose, 0.51% (w/v) KSCN, 0.73% (w/v) KI.
In order to assess the synergistic action of the enhancing agent on the enzyme-substrate enhancing agent, the concentration of enzyme-substrate was adjusted to obtain conditions wherein the oxidase/peroxidase in a hydrogel performs limited but measurable antibacterial activity. The above mentioned (0.25% (v/v)) solution has accordingly been further diluted to 0.017% (v/v).
(§1) A 0.33% (w/v) Na-alginaat (Kelset), 0.66% (v/v) PEG400 gel solution was prepared in water, autoclaved and subsequently cooled to room temperature.
(§2) For the antibacterial assay the following components are mixed: 100 μl of bacterial cell suspension, 100 μl enzyme-substrate master solution (0.25%), 1 g (=1 ml) gel solution, 0.1-1 mg enhancing agent, 300 μl milliQ water. Final concentrations of the enzyme/substrate in the reaction mixture are 0.015 U/ml glucose oxidase, 0.011 U/ml lactoperoxidase, 0.00007% (w/v) potassium thiocyanate, 0.0001% (w/v) potassium iodide, 0.0076% glucose, and 0.066-0.66 mg/ml enhancing agent.

[2] = DPPH-radical bleaching assay; details: for Antioxidant properties: DPPH assay: 5 mMole/liter in 1-octanol; for potency as reducer / antioxidant efficiency: FIG. 4
Protocol: DPPH (1,1-DiPhenyl-2-PicrylHydrazyl) is a cell-permeable, stable free radical that acts as a hydrogen radical scavenger, and is used as a screening tool for detecting free radical scavenging activity of antioxidants. When a radical solution is brought into contact with an antioxidant, the radical-molecule is reduced and thereby looses its characteristic purple colour. This “bleaching” can be monitored by spectrophotometric analysis.
A DPPH-radical solution (15 mg/ml) was prepared freshly in 1-octanol (Sigma) and 900 μl aliquots were transferred to 2 ml spectrophotometer cuvettes. 100 μl of 50 mMole/liter solutions of enhancing agents (dissolved in 1-octanol) were added to the solution (final concentration of the enhancing agents is 5 mMole/liter). Spectrophotometric analysis of the samples was carried out within 5 minutes, in order to prevent quenching caused by free (e.g. air born) radicals.

[3] = Beta-carotene assay; details: for Antioxidant properties: Beta-carotene assay: 5 mMole/liter in 1-octanol; for antioxidant performance in the beta carotene bleaching assay: FIG. 3
Protocol: In this assay, the antioxidant activity of a component is assessed by its ability to prevent bleaching of a beta-carotene solution by radicals formed upon illumination.
A beta-carotene solution (20 mg/ml) was prepared freshly in 1-octanol (Sigma) and 900 μl aliquots were transferred to 2 ml spectrophotometer cuvettes. 100 μl of 50 mMole/liter solutions of enhancing agents of the invention (dissolved in 1-octanol) were added to the solution (final concentration of the enhancing agents is 5 mMole/liter). The solutions were illuminated for up to 5 hours and spectrophotometric analysis was carried out at indicated time points.

[4] = cited from earlier work
[5] = test system: MRSA (methicillin resistant S. aureus) bacteria; assay: Antibacterial activity on MRSA of oxidase/peroxidase with enhancing agents; type: cell-based, Staphylococcus aureus; details: for enhancing effect on the peroxidase/oxidase activity / antibacterial effect of compound alone: FIG. 5; for enhancing effect on the peroxidase/oxidase activity: ES + enhancing agent; for antibacterial effect of compound alone: enhancing agent alone
Protocol: The effect of vanillin and guaiacol on the peroxidase/oxidase activity was assayed on MRSA (methicillin resistant S. aureus) bacteria using growth conditions and assay conditions as described in example 1.

[6] = test system: E. coli; assay: Antibacterial activity on E. coli of enhancing agents and oxidase/peroxidase; type: cell-based, Escherichia coli; details: FIG. 7; 6 hours of incubation
Protocol: Experiments using the conditions described in Example 1 and 2 were performed with Gram-negative bacteria (E. coli).

[7] = test system: Candida albicans; assay: Growth retardation of Candida albicans in SD broth with enzyme/substrate system; type: cell-based; details: FIG. 9; 0.02% dilution of enzyme/substrate
Protocol: A yeast cell culture (A600=0.05) was grown in Sabouraud Dextrose (SD) broth (Difco™, Becton Dickinson) in the presence of a 0.02% dilution (suboptimal concentration) of the enzyme/substrate system described in example 1.

[8] = Dispersion or dissolution in the hydrophilic gel setting; type: physicochemical; details: present experimental setting, hydrogel
Protocol: as §1, §2

[9] = test system: MRSA (Methicillin-Resistant Staphylococcus aureus); assay: Growth retardation of MRSA in TS broth with enzyme/substrate system; type: cell-based; details: FIG. 8; 0.08% dilution of enzyme/substrate
Protocol: A bacterial cell culture (A600=0.02) was grown in Tryptic Soy (TS) broth (Difco™, Becton Dickinson) in the presence of a 0.08% dilution (suboptimal concentration) of the enzyme/substrate system described in example 1. […] (see FIG. 8). It is observed that this effect is maintained for a significant time period.

[10] = test system: HaCat keratinocytes cells; assay: Cell toxicity (MTT) of oxidase/peroxidase alginate gel with guaiacol; type: cell-based; details: 200 μM guaiacol in gel, diluted 1 g in 9 ml, 24 hours; p=0.31
Protocol: (§3) HaCat keratinocytes cells and mouse 3T3 fibroblast cells were grown in the following growth medium: DMEM medium (high glucose; Sigma) supplemented with heat inactivated calf serum (10%) (Life Technologies), L-glutamine (4 mM) (Sigma) and Streptomycin/Penicillin (100 U) (Sigma). […] As a control an identical gel without guaiacol was prepared. One gram of the alginate gel was dissolved in 9 ml growth medium (diluted alginate gel). Cells were seeded at subconfluency. After overnight incubation at 37° C., 5% CO2, growth medium was replaced by diluted alginate gel and the cells were incubated at 37° C., 5% CO2 for another 24 hours. […] Cells were incubated in this MTT-medium for an additional 3 h. Cell viability and metabolism was assayed by determining the chromophoric conversion product of MMT at 570 nm.

[11] = test system: mouse 3T3 fibroblast cells; assay: as above; type: cell-based; details: 200 μM guaiacol in gel, diluted 1 g in 9 ml, 24 hours; p=0.32
Protocol: as §3

Compound | Enhancing effect on oxidase/peroxidase assay [1] | Antioxidant properties: DPPH assay [2] | Antioxidant properties: Beta-carotene assay [3] | Solubility in water [4] | other results
CCCOC(=O)c1cc(O)c(O)c(O)c1 [Propylgallate, propyl gallate, reference compound] | ± | +++ | +++ |  | antibacterial activity of compositions with enhancing agent, substrate and enzyme [1]: less pronounced
N[C@@H](Cc1c[nH]c2ccc(O)cc12)C(=O)O [5-hydroxy-tryptophane, reference compound] |  |  |  |  | enhancing activity on glucose/peroxidase antibacterial activity [1]: did not show an enhancing activity
Cc1cc(C(C)(C)C)c(O)c(C(C)(C)C)c1 [BHT, di-tert-butylated hydroxytoluene, reference compound] | + | ++ | +++ |  | potency as reducer / antioxidant efficiency [2]: less potent reducers than gallic acid and propyl gallate
COc1cccc(C=O)c1O [o-vanillin, 2-hydroxy-3-methoxy-benzaldehyde] |  |  |  | 500 µg/mL (≈ 3.29 mM) | 
COc1cc(C=O)ccc1O [Vanillin, 4-hydroxy-3-methoxy-benzaldehyde] | + | − | − |  | bactericidal capacity when mixed with the enzyme-substrate solution [1]: markedly enhanced the bactericidal capacity; effect on cell survival of the separate systems [1]: only moderately affected cell survival; potency as reducer / antioxidant efficiency [2]: performed poorly; antioxidant performance in the beta carotene bleaching assay [3]: performed poorly; enhancing effect on the peroxidase/oxidase activity [5]: enhancing effect; antibacterial effect of compound alone [5]: limited effect; antibacterial effectiveness in combination with the enzyme-substrate [6]: more effective than enzyme-substrate alone; suppression of fungal growth on addition to enzyme/substrate system [7]: additional suppression of the fungal growth
CCOc1cc(C=O)ccc1O [Quantrovanil, 3-ethoxy-4-hydroxy-benzaldehyde] |  |  |  | 280 µg/mL (≈ 1.68 mM) | 
COc1ccc(C=O)cc1O [Isovanilline, 3-hydroxy-4-methoxy-benzaldehyde] | − | − | ± | 11000 µg/mL (≈ 72.3 mM) | antibacterial activity of compositions with enhancing agent, substrate and enzyme [1]: less pronounced
COc1cc(C=O)cc(OC)c1O [syringaldehyde] |  |  |  |  | dispersion or dissolution in hydrophilic media [8]: could not be properly dispersed or dissolved
CCOc1cc(C=O)ccc1O [Ethylvanillin, 3-ethoxy-4-hydroxy-benzaldehyde] | + |  |  |  | bactericidal capacity when mixed with the enzyme-substrate solution [1]: markedly enhanced the bactericidal capacity; effect on cell survival of the separate systems [1]: only moderately affected cell survival
N[C@@H](Cc1ccc(O)cc1)C(=O)O [tyrosine, reference compound] |  |  |  |  | enhancing activity on glucose/peroxidase antibacterial activity [1]: did not show an enhancing activity
COc1ccccc1O [Guaiacol, 2-methoxyphenol] | + | +++ | ++ |  | bactericidal capacity when mixed with the enzyme-substrate solution [1]: markedly enhanced the bactericidal capacity; effect on cell survival of the separate systems [1]: only moderately affected cell survival; potency as reducer / antioxidant efficiency [2]: nearly as efficient as gallic acid and propyl gallate; antioxidant performance in the beta carotene bleaching assay [3]: very effective; enhancing effect on the peroxidase/oxidase activity [5]: enhancing effect; antibacterial effect of compound alone [5]: limited effect; enhancing effect on peroxidase/oxidase activity ([5]; FIG. 6, different concentrations of guaiacol): significant enhancing effect; antibacterial effectiveness in combination with the enzyme-substrate [6]: more effective than enzyme-substrate alone; suppression of bacterial growth on addition to enzyme/substrate system [9]: additional suppression of the bacterial growth; suppression of fungal growth on addition to enzyme/substrate system [7]: additional suppression of the fungal growth; metabolic activity of cells (MTT), alginate hydrogel with versus without guaiacol [10]: no statistical difference; metabolic activity of cells (MTT), alginate hydrogel with versus without guaiacol [11]: no statistical difference
O=Cc1ccc(O)c(O)c1 [3,4 dihydroxybenzaldehyde, reference compound] |  |  |  |  | antibacterial activity of compositions with enhancing agent, substrate and enzyme [1]: less pronounced
COc1cccc(O)c1 [m-Guaiacol, 3-methoxyphenol] |  |  |  | 500 µg/mL (≈ 4.03 mM) | 
COc1cc(O)ccc1O [Methoxyhydroquinone, 2-methoxybenzene-1,4-diol] |  |  |  | 33000 µg/mL (≈ 235 mM) | 
Vitamin E [reference compound] | − | + | + |  | potency as reducer / antioxidant efficiency [2]: less potent reducers than gallic acid and propyl gallate
COc1cc(C(C)=O)ccc1O [Apocynin, 1-(4-hydroxy-3-methoxy-phenyl)ethanone] |  |  |  | 500 µg/mL (≈ 3.01 mM) | 
COc1cc(C(=O)O)ccc1O [Vanillic acid, 4-hydroxy-3-methoxy-benzoic acid] | + |  | ± |  | 
CCOc1ccccc1O [Guaiethol, 2-ethoxyphenol] | + | +++ | ++ | 3100 µg/mL (≈ 22.4 mM) | potency as reducer / antioxidant efficiency [2]: nearly as efficient as gallic acid and propyl gallate; antioxidant performance in the beta carotene bleaching assay [3]: very effective
O=C(O)c1cc(O)c(O)c(O)c1 [Gallic acid, reference compound] | + | +++ | +++ |  | antibacterial activity of compositions with enhancing agent, substrate and enzyme [1]: less pronounced
